# Key:
# ABX [1] = molecular target: T1, ABX (Homo sapiens, UniProt P02768); assay: Binding of cisplatin to ABX, free cisplatin by HPLC; settings: ABX 5 mg/ml, cisplatin 0.5 mg/ml, room temperature 30 minutes
# T1 construct: purchased Celgene Corporation, Summit, N.J
# ABX [2] = molecular target: T1, ABX; assay: Bio-Layer Interferometry (BLItz) binding assay of antibody and ABX; settings: for dependence of binding affinity to ABX on pH / temperature: pH 3, 5, 7, 9, for BEV also RT, 37° C. and 58° C.
# Experimental: The association and dissociation constants were calculated using the BLItz software.
# [3] = tested on: A375 human melanoma cells; assay: A375 xenograft efficacy in athymic nude mice; format: in vivo; settings: Example 5; ABX 30 mg/kg, BEV 12 mg/kg, tumors about 700 mm^3 at treatment
# Experimental: Tumor response was determined at day 7 post-treatment by the percent change in tumor size from the day of treatment.
# In vivo experiments were performed at least 2 times. The number of mice required for those experiments was determined by power analysis. Mouse tumors were measured 2-3 times/week and mice were sacrificed when the tumor was 10% by weight. […] The end point of the mouse studies was median survival. Kaplan-Meier curves were generated and Mantle-Cox test was performed to determine significance of median survival between treatment groups. The in vitro results presented are representative of at least 5 repeated experiments. Statistical analyses of in vitro and in vivo percent change from baseline experiments were done using the Student's t-test.
# (§1) To test tumor efficacy, 1×10^6 A375 human melanoma cells were implanted into the right flank of athymic nude mice (Harlan Sprague Dawley, Indianapolis, Ind.). […] Tumor size was monitored 3 times/week and tumor volume was calculated with the following equation: (length*width^2)/2. Mice were sacrificed when the tumor size equaled 10% of the mouse body weight or about 2500 mm^3. The day 7 percent change from baseline was calculated as follows: [(tumor size on treatment day-tumor size on day 7)/tumor size on treatment day]*100.
# [4] = tested on: A375 human melanoma cells; assay: A375 xenograft, pretreatment with BEV before AB160; format: in vivo, athymic nude mice; settings: 12 mg/kg dose
# From the text: Data is represented at day 7-post and 10-day treatment as tumor volume in mm^3.
# Data is represented at day 7-post and day 10-post treatment as tumor volume in mm^3. F 11A-E track tumor size over 10 days. […] See also FIG. 11F and FIG. 11G.
# [5] = tested on: Daudi human lymphoma cells; assay: Daudi xenograft efficacy in athymic nude mice; format: in vivo; settings: ABX 30 mg/kg, rituximab 12 mg/kg
# Experimental: Tumor response was determined at day 7 post-treatment by the percent change in tumor size from the first day of treatment.
# as §1
Compound,cisplatin remaining in the supernatant (ABX [1]),binding affinity to ABX (in words) (ABX [2]),dependence of binding affinity to ABX on pH / temperature (ABX [2]),median survival [3],therapeutic effect of BEV alone [4],median survival [5]
N.N.[Cl][Pt][Cl] [cisplatin],40%,–,–,–,–,–
bevacizumab,–,picomolar range,highest binding affinity observed when the particles are formed at pH 5 and 58 °C,14 days,not therapeutic,–
rituximab,–,picomolar range,decreased with higher pH,–,–,12 days
